Measured values taken from patent US9593122B2, “Substituted pyrazolylpyrazole derivative and use of same as herbicide” (KYOYU AGRI CO., LTD., priority 2013, dated 2017).

What was measured:
[1] = system: Echinochloa crus-galli; test: Paddy herbicidal activity test; type: in vivo; conditions: irrigated paddy pot, treated at 3.5 leaf stage of Echinochloa crus-galli, 30 days
Method in brief: (§1)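 Flooded paddy-soil pots (3 cm water) were sown with Echinochloa, Monochoria and Scirpus, and rice at the 2.0-leaf stage was transplanted. Diluted wettable powder was dripped in per are at weed 3.5-leaf stage. After 30 days in a greenhouse (~30 °C), growth inhibition versus untreated plants was scored on an 11-level scale.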

[2] = system: Monochoria vaginalis; test: Paddy herbicidal activity test; type: in vivo; conditions: irrigated paddy pot, 30 days
Method in brief: as §1

[3] = system: Scirpus juncoides; test: Paddy herbicidal activity test; type: in vivo; conditions: irrigated paddy pot, 30 days
Method in brief: as §1

[4] = system: Rice plants; test: Paddy herbicidal activity test, phytotoxicity to transplanted rice; type: in vivo; conditions: rice transplanted at 2.0 leaf stage, 30 days
Description: Rice paddy soil was filled into a 1/10000 are pot followed by the addition of suitable amounts of water and chemical fertilizer, kneading, seeding with Echinochloa crus-galli, Monochoria vaginalis and Scirpus juncoides and maintaining in an irrigated state at a water depth of 3 cm.
Wettable powder of Target Compound (I) shown in Table 1 prepared in compliance with the preparation examples were diluted with a suitable amount of water, rice plants in the 2.0 leaf stage were transplanted during 3.5 leaf stage of Echinochloa crus-galli, and treated by dropping in chemical in the prescribed amount per are using a pipette.
After treating for 30 days in a glass greenhouse at an average atmospheric temperature of 30° C., the herbicidal efficacy thereof was investigated.
Evaluation of herbicidal efficacy was carried out by comparing growth inhibition rate (%) with an untreated group, while evaluation of phytotoxicity was carried out by comparing growth inhibition rate (%) with the state of a complete eradication group, and were evaluated at 11 levels indicated below.

C=C(Cl)CNc1c(C#N)cnn1-c1nn2c(c1Cl)CCCC2 [Compound 2, 1-(3-chloro-4,5,6,7-tetrahydropyrazolo[1,5-a]pyridin-2-yl)-5-(2-chloroprop-2-enylamino)pyrazole-4-carbonitrile]
Echinochloa crus-galli herbicidal efficacy (growth inhibition level) ([1]; 1g a.i./10a): 9 (9: 90% to less than 100%)
Echinochloa crus-galli herbicidal efficacy (growth inhibition level) ([1]; 5g a.i./10a): 9 (9: 90% to less than 100%)
Monochoria vaginalis herbicidal efficacy (growth inhibition level) ([2]; 1g a.i./10a): 9 (9: 90% to less than 100%)
Monochoria vaginalis herbicidal efficacy (growth inhibition level) ([2]; 5g a.i./10a): 9 (9: 90% to less than 100%)
Scirpus juncoides herbicidal efficacy (growth inhibition level) ([3]; 1g a.i./10a): 7 (7: 70% to less than 80%)
Scirpus juncoides herbicidal efficacy (growth inhibition level) ([3]; 5g a.i./10a): 8 (8: 80% to less than 90%)
Rice plants phytotoxicity (growth inhibition level) ([4]; 1g a.i./10a): 0 (0 (exponent): 0% to less than 10% (growth inhibition rate))
Rice plants phytotoxicity (growth inhibition level) ([4]; 5g a.i./10a): 0 (0 (exponent): 0% to less than 10% (growth inhibition rate))
melting point: 123 to 124 °C
